Results: patent US20060068444A1, “Compositions and methods for detecting cyclic analogs of hPTH” (Zelos Therapeutics, Inc, priority 2004, published 2006)
Positions of bridges follow the written chain, without caps; N, C: chain ends. No end group written: not given here.

Tests used:
[1] = test system: antibodies which have binding specificity for cyclic analogs of hPTH (HRP-labeled anti-C-terminal antibody plus biotinylated anti-N-terminal antibody); assay: two-site sandwich ELISA for [Leu^27]cyclo(Glu^22-Lys^26)hPTH-(1-31); design: species or system rabbit; conditions: for detection in the two-site sandwich ELISA (cross-reaction), OD at 450 nm: peptides at 10,000, 1,000 and 100 pg/ml in BSA based buffer matrix, FIG. 3
Procedure: Streptavidin was weighed and diluted to 20 mg/L with phosphate buffer, 0.2 ml of this solution was added to each well of Corning® 96 Well Polystyrene Microplate. The plates were incubated at room temperature for 18-22 hours. The plates were then washed and a stabile/blocking buffer containing BSA was added. The plates were again incubated at room temperature for four hours. The plates were finally dried at <30% humidity. […] The peptide was diluted with a bovine serum albumin and normal bovine serum based buffer matrix to a final concentration of 1600 pg/ml, 400 pg/ml, 100 pg/ml, 25 pg/ml and 6 pg/ml. […] The above antigen and antibodies were incubated in the streptavidin coated well for 3 hours at room temperature with shaking at 170 rpm. After incubation, each well was washed with an ELISA wash buffer. 200 μL of tetra methyl benzidine (TMB) was then added into each well. The wells were incubated for 20 min at room temperature and then 100 μL of a stop solution was added into each well. The Microplates were read with a microtiter plate reader (VERSAmaxTM, Molecular Device, Inc.) at an absorption wavelength of 450 nm. A standard curve was obtained by plotting the optical density (OD) at 450 nm against the correspondent Ostabolin-C standard concentration. […] The OD at 450 nm values were read by a microtiter plate reader ([…], Molecular Device, Inc.) (FIG. 3).

ovariectomized rat model = conditions: cited from earlier work
adenylyl cyclase (AC) = conditions: cited from earlier work

Substance | detection in the two-site sandwich ELISA (cross-reaction), OD at 450 nm [1] | restoration of bone loss (ovariectomized rat model) | AC stimulating activity (adenylyl cyclase (AC)) | standard curve, optical density (OD) at 450 nm against standard concentration ([1]; peptide standards 1600, 400, 100, 25 and 6 pg/ml, FIG. 2)
hPTH-(1-34) | not able to detect | – | – | –
hPTH-(1-31) | not able to detect | – | – | –
hPTH-(1-84) | not able to detect | – | – | –
hPTH-(1-31)-NH2 | – | fully active | has only AC stimulating activity | –
[Leu^27]cyclo(Glu^22-Lys^26)hPTH-(1-31) (SVSEIQLMHNLGKHLNSMERVEWLRKLLQDV-NH2; lactam 22-26; N-terminus assumed; SMILES CC[C@H](C)[C@H](NC(=O)[C@H](CCC(=O)O)NC(=O)[C@H](CO)NC(=O)[C@@H](NC(=O)[C@@H](N)CO)C(C)C)C(=O)N[C@@H](CCC(N)=O)C(=O)N[C@@H](CC(C)C)C(=O)N[C@@H](CCSC)C(=O)N[C@@H](Cc1c[nH]cn1)C(=O)N[C@@H](CC(N)=O)C(=O)N[C@@H](CC(C)C)C(=O)NCC(=O)N[C@@H](CCCCN)C(=O)N[C@@H](Cc1c[nH]cn1)C(=O)N[C@@H](CC(C)C)C(=O)N[C@@H](CC(N)=O)C(=O)N[C@@H](CO)C(=O)N[C@@H](CCSC)C(=O)N[C@@H](CCC(=O)O)C(=O)N[C@@H](CCCNC(=N)N)C(=O)N[C@H](C(=O)N[C@H]1CCC(=O)NCCCC[C@@H](C(=O)N[C@@H](CC(C)C)C(=O)N[C@@H](CC(C)C)C(=O)N[C@@H](CCC(N)=O)C(=O)N[C@@H](CC(=O)O)C(=O)N[C@H](C(N)=O)C(C)C)NC(=O)[C@H](CCCNC(=N)N)NC(=O)[C@H](CC(C)C)NC(=O)[C@H](Cc2c[nH]c3ccccc23)NC1=O)C(C)C) [cyclic analog of hPTH, cyclized between Glu^22 and Lys^26] | dose responsive manner | – | – | dose responsive standard curve
